# Test results published in US20240058464A1 (Fortis Therapeutics, Inc., priority 2021, published 2024).
# How the values were obtained:
# [1] = test system: CD46 expression; assay: CD46 expression by RNA-sequencing in unpaired pre-treatment and post-treatment tumor biopsies; type: in vivo, human; conditions: for CD46 expression Post: post-treatment biopsies; for CD46 expression Pre: pre-treatment biopsies
# [2] = test system: CD46 expression; assay: CD46 expression by RNA-sequencing in paired tumor biopsies before and after therapy; conditions: for CD46 expression diff (post minus pre) / Percent Change in CD46 expression / CD46 expression, Post-Treatment Biopsy / CD46 expression, Pre-Treatment Biopsy: paired biopsies; for CD46 expression, Post-Treatment Biopsy / CD46 expression, Pre-Treatment Biopsy: RNA-seq log2-transformed counts;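 on all read-outs here: FFPE human tumor biopsies, exome-capture RNA-seq, reads aligned to GRCh37, counts normalized for GC content, length and depth, summed per gene, log2-transformed, samples paired before versus after therapy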
# Experimental: Gene expression was determined by RNA-sequencing from formalin-fixed, paraffin-embedded (FFPE) tumor samples using an exome capture-based protocol. Briefly, total nucleic acid was extracted from FFPE solid tumor samples. The RNA sample was treated with DNAse and reverse transcribed. cDNA was captured with a custom probe set targeting the human exome. A library was prepared from the captured cDNA and sequenced on the Illumina platform. Sequence read were aligned to GRCh37 using Kallisto and normalized to quantify gene expression. Specifically, transcript counts were corrected for GC content and length using quantile normalization and adjusted for sequencing depth via a size factor method. Normalized counts in protein coding transcripts covered by the exome panel were then summed to obtain gene-level counts. Subsequent expression analyses were performed on log2-transformed counts.
# [3] = Breast Cancer, Post minus Pre, unpaired biopsies, log2-transformed counts
# [4] = Breast Cancer, post- vs pre-treatment unpaired biopsies
# [5] = Breast Cancer, unpaired, RNA-seq log2-transformed normalized counts
# [6] = Colorectal Cancer, Post minus Pre, unpaired biopsies, log2-transformed counts
# [7] = Colorectal Cancer, post- vs pre-treatment unpaired biopsies
# [8] = Colorectal Cancer, unpaired, RNA-seq log2-transformed normalized counts
# [9] = Endometrial Cancer, log2-transformed RNA-seq counts
# [10] = Breast Cancer, log2-transformed RNA-seq counts
# [11] = Prostate Cancer, Post minus Pre, unpaired biopsies, log2-transformed counts
# [12] = Prostate Cancer, post- vs pre-treatment unpaired biopsies
# [13] = Prostate Cancer, unpaired, RNA-seq log2-transformed normalized counts
compound,measurement,setting,value
CC(=O)c1c(C)c2cnc(Nc3ccc(N4CCNCC4)cn3)nc2n(C2CCCC2)c1=O [palbociclib],CD46 expression diff,[1]; [3],0.01
same,CD46 expression Percentage change,[1]; [4],0.2%
same,CD46 expression Post,[1]; [5],6.42
same,CD46 expression diff (post minus pre),[2]; Breast Cancer,−0.17
same,Percent Change in CD46 expression,[2]; Breast Cancer,−2.7%
same,"CD46 expression, Post-Treatment Biopsy",[2]; Breast Cancer,6.34
bevacizumab,CD46 expression diff,[1]; [3],0.33
same,CD46 expression Percentage change,[1]; [4],5.4%
same,CD46 expression Post,[1]; [5],6.34
same,CD46 expression diff,[1]; [6],0.11
same,CD46 expression Percentage change,[1]; [7],1.7%
same,CD46 expression Post,[1]; [8],6.53
same,CD46 expression diff,"[1]; Endometrial Cancer, post minus pre, unpaired biopsies",−0.26
same,CD46 expression Percentage change,"[1]; Endometrial Cancer, post vs pre, unpaired biopsies",−4.4%
same,CD46 expression Post,[1]; [9],5.56
same,CD46 expression Pre,[1]; [9],5.81
same,CD46 expression diff,"[1]; Glioblastoma, Post minus Pre, unpaired biopsies, log2-transformed counts",−0.02
same,CD46 expression Percentage change,"[1]; Glioblastoma, post- vs pre-treatment unpaired biopsies",−0.4%
same,CD46 expression Post,"[1]; Glioblastoma, unpaired, RNA-seq log2-transformed normalized counts",4.79
same,CD46 expression diff,"[1]; Non-Small Cell Lung Cancer, Post minus Pre, unpaired biopsies, log2-transformed counts",−0.11
same,CD46 expression Percentage change,"[1]; Non-Small Cell Lung Cancer, post- vs pre-treatment unpaired biopsies",−1.8%
same,CD46 expression Post,"[1]; Non-Small Cell Lung Cancer, unpaired, RNA-seq log2-transformed normalized counts",6.25
same,CD46 expression diff,"[1]; Ovarian Cancer, Post minus Pre, unpaired biopsies, log2-transformed counts",0.03
same,CD46 expression Percentage change,"[1]; Ovarian Cancer, post- vs pre-treatment unpaired biopsies",0.5%
same,CD46 expression Post,"[1]; Ovarian Cancer, unpaired, RNA-seq log2-transformed normalized counts",5.75
same,CD46 expression diff (post minus pre),[2]; Colorectal Cancer,0.08
same,Percent Change in CD46 expression,[2]; Colorectal Cancer,1.3%
same,"CD46 expression, Post-Treatment Biopsy",[2]; Colorectal Cancer,6.33
same,"CD46 expression, Pre-Treatment Biopsy",[2]; Colorectal Cancer,6.25
same,CD46 expression diff (post minus pre),[2]; Glioblastoma,0.06
same,Percent Change in CD46 expression,[2]; Glioblastoma,1.3%
same,"CD46 expression, Post-Treatment Biopsy",[2]; Glioblastoma,4.64
same,"CD46 expression, Pre-Treatment Biopsy",[2]; Glioblastoma,4.58
same,CD46 expression diff (post minus pre),[2]; Ovarian Cancer,−0.11
same,Percent Change in CD46 expression,[2]; Ovarian Cancer,−1.9%
same,"CD46 expression, Post-Treatment Biopsy",[2]; Ovarian Cancer,5.54
same,"CD46 expression, Pre-Treatment Biopsy",[2]; Ovarian Cancer,5.65
C=CC(=O)Nc1cc(Nc2nccc(-c3cn(C)c4ccccc34)n2)c(OC)cc1N(C)CCN(C)C [osimertinib],CD46 expression diff,"[1]; Non-Small Cell Lung Cancer, post minus pre, unpaired biopsies",−0.29
same,CD46 expression Percentage change,"[1]; Non-Small Cell Lung Cancer, post vs pre, unpaired biopsies",−4.4%
same,CD46 expression Post,"[1]; Non-Small Cell Lung Cancer, log2-transformed RNA-seq counts",6.23
same,CD46 expression diff (post minus pre),[2]; Non-Small Cell Lung Cancer,−0.26
same,Percent Change in CD46 expression,[2]; Non-Small Cell Lung Cancer,−4.0%
CNC(=O)c1cc(Oc2ccc(NC(=O)Nc3ccc(Cl)c(C(F)(F)F)c3)c(F)c2)ccn1 [regorafenib],CD46 expression diff,[1]; [6],0.19
same,CD46 expression Percentage change,[1]; [7],2.9%
same,CD46 expression Post,[1]; [8],6.63
same,CD46 expression diff (post minus pre),[2]; Colorectal Cancer,0.25
same,Percent Change in CD46 expression,[2]; Colorectal Cancer,4.0%
same,"CD46 expression, Post-Treatment Biopsy",[2]; Colorectal Cancer,6.49
O=P1(NCCCl)OCCCN1CCCl (stereo not drawn) [ifosfamide],CD46 expression diff,"[1]; Sarcoma, Post minus Pre, unpaired biopsies, log2-transformed counts",0.17
same,CD46 expression Percentage change,"[1]; Sarcoma, post- vs pre-treatment unpaired biopsies",3.4%
same,CD46 expression Post,"[1]; Sarcoma, unpaired, RNA-seq log2-transformed normalized counts",5.07
same,CD46 expression diff (post minus pre),[2]; Sarcoma,0.32
same,Percent Change in CD46 expression,[2]; Sarcoma,6.7%
same,"CD46 expression, Post-Treatment Biopsy",[2]; Sarcoma,5.08
N#Cc1ccc(C(c2ccc(C#N)cc2)n2cncn2)cc1 [letrozole],CD46 expression diff,[1]; [3],−0.04
same,CD46 expression Percentage change,[1]; [4],−0.6%
same,CD46 expression Post,[1]; [5],6.39
same,CD46 expression diff,"[1]; Ovarian Cancer, post minus pre, unpaired biopsies",−0.17
same,CD46 expression Percentage change,"[1]; Ovarian Cancer, post vs pre, unpaired biopsies",−2.8%
same,CD46 expression Post,"[1]; Ovarian Cancer, log2-transformed RNA-seq counts",5.74
same,CD46 expression diff (post minus pre),[2]; Breast Cancer,−0.04
same,Percent Change in CD46 expression,[2]; Breast Cancer,−0.6%
same,"CD46 expression, Post-Treatment Biopsy",[2]; Breast Cancer,6.41
CC(C)(C#N)c1cc(Cn2cncn2)cc(C(C)(C)C#N)c1 [anastrozole],CD46 expression diff,[1]; [3],0.06
same,CD46 expression Percentage change,[1]; [4],0.9%
same,CD46 expression Post,[1]; [5],6.41
same,CD46 expression diff (post minus pre),[2]; Breast Cancer,0.41
same,Percent Change in CD46 expression,[2]; Breast Cancer,6.7%
same,"CD46 expression, Post-Treatment Biopsy",[2]; Breast Cancer,6.49
same,subjects whose paired biopsies showed increased CD46 expression,"[2]; breast cancer, 15 of 19 subjects, FIG. 3",79%
CCNC(=O)[C@@H]1CCCN1C(=O)[C@H](CCCNC(=N)N)NC(=O)[C@H](CC(C)C)NC(=O)[C@@H](CC(C)C)NC(=O)[C@H](Cc1ccc(O)cc1)NC(=O)[C@H](CO)NC(=O)[C@H](Cc1c[nH]c2ccccc12)NC(=O)[C@H](Cc1c[nH]cn1)NC(=O)[C@@H]1CCC(=O)N1 [leuprolide],CD46 expression diff,"[1]; Breast Cancer, post minus pre, unpaired biopsies",−0.15
same,CD46 expression Percentage change,"[1]; Breast Cancer, post vs pre, unpaired biopsies",−2.3%
same,CD46 expression Post,[1]; [10],6.18
same,CD46 expression Pre,[1]; [10],6.33
same,CD46 expression diff,[1]; [11],−0.10
same,CD46 expression Percentage change,[1]; [12],−1.6%
same,CD46 expression Post,[1]; [13],6.08
same,CD46 expression diff (post minus pre),[2]; Prostate Cancer,−0.19
same,Percent Change in CD46 expression,[2]; Prostate Cancer,−3.1%
same,"CD46 expression, Post-Treatment Biopsy",[2]; Prostate Cancer,5.92
same,"CD46 expression, Pre-Treatment Biopsy",[2]; Prostate Cancer,6.11
CNC(=O)c1ccc(N2C(=S)N(c3ccc(C#N)c(C(F)(F)F)c3)C(=O)C2(C)C)cc1F [enzalutamide],CD46 expression diff,[1]; [11],0.03
same,CD46 expression Percentage change,[1]; [12],0.4%
same,CD46 expression Post,[1]; [13],6.14
same,CD46 expression diff (post minus pre),[2]; Prostate Cancer,0.06
same,Percent Change in CD46 expression,[2]; Prostate Cancer,1.1%
same,"CD46 expression, Post-Treatment Biopsy",[2]; Prostate Cancer,6.01
